Patent US4414226A, “1,4-Naphtoquinone derivatives and their use in treating coccidiosis” (Fujisawa Pharmaceutical Co., Ltd., priority 1980, dated 1983)

What was measured:
[1] = tested on: Eimeria tenella; assay: coccidium infection and treatment test in the chicken (Test example 1, Table 1); format: in vivo, Eimeria tenella; male white Leghorn chickens; parameters: Lesion score: scale not given here; settings: for Lesion score: 3 times a day for 3 days, cecal lesions; for Weight gain index: noninfected group = 100
Protocol: (1) A coccidium infection and treatment test in the chicken
Male white Leghorn chickens, aged 2 weeks and with a mean body weight of 100 g, were treated with two representative examples of product compound (I) and Monensin, a control drug, at the various dose levels indicated in Table 1. Each compound and drug was suspended in a 1% aqueous solution of gum arabic and 2 ml per dose of the suspension was administered 3 times a day for 3 consecutive days. Birds in the untreated control groups were given 2 ml per dose of a 1% aqueous solution of gum arabic only in otherwise the same manner.
Immediately after the first dosing, birds in the infected groups were orally inoculated with 3.0×10^4 /bird of oocysts of Eimeria tenella. Body weights were taken at the first treatment and on the 3rd day after the entire course of treatment to investigate changes in body weight. Immediately after the second taking of body weights, the birds were terminated and autopsied to examine and score the cecal lesions.
Dosage: The total dose (mg) given to each bird during the test period.
Weight gain index: These indices were computed with the body weight gain
of birds in the noninfected group being taken as 100.
Three birds were assigned to each of the infected-non-treated groups, non-infected groups, the monencin group and the (Ia-A) groups, and the weight gain indices were computed from the mean body weight values for 3 birds. The (Ia-B) groups each consisted of a bird only.

[2] = Solubility; format: physicochemical
[3] = Stability; format: physicochemical
[4] = total dose 40 mg per bird, oral
[5] = 30 minutes in 50° C. solution at pH 2
[6] = 30 minutes in 50° C. solution at pH 10

Row | Solubility ([2]; acetone) | Solubility ([2]; chloroform) | Solubility ([2]; ethanol) | Solubility ([2]; methanol) | Solubility ([2]; water) | Solubility ([2]; ethyl acetate) | Solubility ([2]; hexane) | Stability [3, 5] | Structure (SMILES) | Lesion score ([1]; total dose 1.25 mg per bird) | Weight gain index ([1]; total dose 1.25 mg per bird) | Lesion score ([1]; total dose 2.5 mg per bird) | Weight gain index ([1]; total dose 2.5 mg per bird) | Lesion score ([1]; total dose 5 mg per bird) | Weight gain index ([1]; total dose 5 mg per bird) | Lesion score ([1]; total dose 10 mg per bird) | Weight gain index ([1]; total dose 10 mg per bird) | Lesion score ([1]; total dose 20 mg per bird) | Weight gain index ([1]; total dose 20 mg per bird) | Lesion score [1, 4] | Weight gain index ([1]; total dose 40 mg per bird) | other results
1 | Sparingly soluble | Sparingly soluble | Sparingly soluble | Sparingly soluble | Insoluble | – | – | – | COc1cc(C)cc2c(=O)oc3c(c12)C(=O)c1cccc(O)c1C3=O [(Ia-A), 8-hydroxy-1-methoxy-3-methyl-7,12-dihydro-5H-benzo[d]naphtho[2,3-b]pyran-5,7,12-trione] | 2.0 | 108 | 2.0 | 92 | 0.3 | 97 | 0 | 106 | 0 | 108 | 0 | 95 | Solubility ([2]; dimethyl sulfoxide): Partially soluble; Solubility ([2]; tetrahydrofuran): Partially soluble; Stability ([3]; acid solutions): Instable; Stability ([3]; alkaline solutions): Instable
2 | Readily soluble | Readily soluble | Readily soluble | Readily soluble | Insoluble | Readily soluble | Insoluble | Stable | COc1cc(C)cc(C(=O)O)c1C1=CC(=O)c2c(O)cccc2C1=O [(Ia-B), 2-(5-hydroxy-1,4-naphthoquinon-2-yl)-3-methoxy-5-methylbenzoic acid] | – | – | 3 | 68 | 0 | 80 | 0 | 95 | 0 | 90 | 0 | 102 | Solubility ([2]; benzene): Insoluble; Stability [3, 6]: Stable
3 | Partially soluble | – | Readily soluble | Readily soluble | Insoluble | Partially soluble | Insoluble | Stable | COc1cc(C)cc(C(=O)O)c1C1=C(O)C(=O)c2c(O)cccc2C1=O [(Ia-C), 2-(3,5-dihydroxy-1,4-naphthoquinon-2-yl)-3-methoxy-5-methylbenzoic acid] | – | – | – | – | – | – | – | – | – | – | – | – | Solubility ([2]; ether): Insoluble; Stability [3, 6]: Stable
4 | – | – | – | – | – | – | – | – | CC[C@@]1([C@@H]2O[C@@H]([C@H]3O[C@@](O)(CO)[C@H](C)C[C@@H]3C)C[C@@H]2C)CC[C@H]([C@]2(C)CC[C@]3(C[C@H](O)[C@@H](C)[C@@H]([C@@H](C)[C@@H](OC)[C@H](C)C(=O)O)O3)O2)O1 [Monensin, reference compound] | 4.0 | 99 | 2.7 | 92 | 2.3 | 98 | 0 | 68 | 0 | 51 | 0 | 41 | –
